# Laboratory results from ChEMBL document CHEMBL1201862, “PubChem BioAssay data set” (2004).
#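 These data come from cells grown in 96-well plates and exposed to compound for 48 hours at five concentrations. At the GI50, growth is halved.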 Activity calls are given as the source filed them. Cut-off read from the data, not from the text of the source: active = GI50 up to about 1.1 µM and inactive = higher.
# Key:
# Assay in all cases: NCI tumour cell line growth inhibition, 48 h
# 786-0 = test system: 786-0
# A498 = test system: A498
# A549 = test system: A549
# ACHN = test system: ACHN
# CAKI-1 = test system: CAKI-1
# CCRF-CEM = test system: CCRF-CEM
# COLO 205 = test system: COLO 205
# DLD-1 = test system: DLD-1
# DMS-273 = test system: DMS-273
# EKVX = test system: EKVX
# HCC 2998 = test system: HCC 2998
# HCT-116 = test system: HCT-116
# HCT-15 = test system: HCT-15
# HL-60 = test system: HL-60
# HOP-18 = test system: HOP-18
# HOP-62 = test system: HOP-62
# HOP-92 = test system: HOP-92
# HT-29 = test system: HT-29
# IGROV-1 = test system: IGROV-1
# K562 = test system: K562
# KM-20L2 = test system: KM-20L2
# KM12 = test system: KM12
# LOX IMVI = test system: LOX IMVI
# LXFL 529 = test system: LXFL 529
# M14 = test system: M14
# M19-MEL = test system: M19-MEL
# MOLT-4 = test system: MOLT-4
# Malme-3M = test system: Malme-3M
# NCI-H226 = test system: NCI-H226
# NCI-H23 = test system: NCI-H23
# NCI-H460 = test system: NCI-H460
# NCI-H522 = test system: NCI-H522
# OVCAR-3 = test system: OVCAR-3
# OVCAR-4 = test system: OVCAR-4
# OVCAR-5 = test system: OVCAR-5
# OVCAR-8 = test system: OVCAR-8
# RPMI-8226 = test system: RPMI-8226
# RXF 393 = test system: RXF 393
# RXF 631 = test system: RXF 631
# SF-268 = test system: SF-268
# SF-295 = test system: SF-295
# SF-539 = test system: SF-539
# SK-MEL-28 = test system: SK-MEL-28
# SK-MEL-2 = test system: SK-MEL-2
# SK-MEL-5 = test system: SK-MEL-5
# SK-OV-3 = test system: SK-OV-3
# SN12C = test system: SN12C
# SNB-19 = test system: SNB-19
# SNB-75 = test system: SNB-75
# SNB-78 = test system: SNB-78
# SR = test system: SR
# TK-10 = test system: TK-10
# U-251 = test system: U-251
# UACC-257 = test system: UACC-257
# UACC-62 = test system: UACC-62
# UO-31 = test system: UO-31
# XF498 = test system: XF498
# DMS-114 = test system: DMS-114
# SW-620 = test system: SW-620
compound,measurement,setting,value
O=C1C[S+]([O-])c2ccccc2N1 (stereo not given),GI50,786-0,> 100 µM (inactive)
same,GI50,A498,> 100 µM (inactive)
same,GI50,A549,> 100 µM (inactive)
same,GI50,ACHN,> 100 µM (inactive)
same,GI50,CAKI-1,> 100 µM (inactive)
same,GI50,CCRF-CEM,> 100 µM (inactive)
same,GI50,COLO 205,30.8 µM (inactive)
same,GI50,DLD-1,> 100 µM (inactive)
same,GI50,DMS-273,16.8 µM (inactive)
same,GI50,EKVX,> 100 µM (inactive)
same,GI50,HCC 2998,> 100 µM (inactive)
same,GI50,HCT-116,71.1 µM (inactive)
same,GI50,HCT-15,> 100 µM
same,GI50,HL-60,> 100 µM (inactive)
same,GI50,HOP-18,> 100 µM (inactive)
same,GI50,HOP-62,> 100 µM (inactive)
same,GI50,HOP-92,> 100 µM (inactive)
same,GI50,HT-29,> 100 µM (inactive)
same,GI50,IGROV-1,> 100 µM (inactive)
same,GI50,K562,> 100 µM (inactive)
same,GI50,KM-20L2,> 100 µM (inactive)
same,GI50,KM12,> 100 µM (inactive)
same,GI50,LOX IMVI,52.6 µM (inactive)
same,GI50,LXFL 529,> 100 µM (inactive)
same,GI50,M14,> 100 µM (inactive)
same,GI50,M19-MEL,> 100 µM (inactive)
same,GI50,MOLT-4,> 100 µM (inactive)
same,GI50,Malme-3M,> 100 µM (inactive)
same,GI50,NCI-H226,> 100 µM (inactive)
same,GI50,NCI-H23,> 100 µM (inactive)
same,GI50,NCI-H460,66.1 µM (inactive)
same,GI50,NCI-H522,> 100 µM (inactive)
same,GI50,OVCAR-3,> 100 µM (inactive)
same,GI50,OVCAR-4,> 100 µM (inactive)
same,GI50,OVCAR-5,> 100 µM (inactive)
same,GI50,OVCAR-8,> 100 µM (inactive)
same,GI50,RPMI-8226,45.8 µM (inactive)
same,GI50,RXF 393,> 100 µM (inactive)
same,GI50,RXF 631,> 100 µM (inactive)
same,GI50,SF-268,71.8 µM (inactive)
same,GI50,SF-295,> 100 µM (inactive)
same,GI50,SF-539,> 100 µM (inactive)
same,GI50,SK-MEL-28,55.1 µM (inactive)
same,GI50,SK-MEL-2,> 100 µM (inactive)
same,GI50,SK-MEL-5,> 100 µM (inactive)
same,GI50,SK-OV-3,> 100 µM (inactive)
same,GI50,SN12C,> 100 µM (inactive)
same,GI50,SNB-19,> 100 µM (inactive)
same,GI50,SNB-75,> 100 µM (inactive)
same,GI50,SNB-78,> 100 µM (inactive)
same,GI50,SR,45.5 µM (inactive)
same,GI50,TK-10,> 100 µM (inactive)
same,GI50,U-251,> 100 µM (inactive)
same,GI50,UACC-257,> 100 µM (inactive)
same,GI50,UACC-62,> 100 µM (inactive)
same,GI50,UO-31,> 100 µM (inactive)
same,GI50,XF498,> 100 µM (inactive)
O=C1O[C@@H](c2ccc3c(c2)OCO3)C2C(=O)O[C@@H](c3ccc4c(c3)OCO4)C12 (stereo not given in full),GI50,786-0,> 100 µM (inactive)
same,GI50,A498,> 100 µM (inactive)
same,GI50,A549,> 100 µM (inactive)
same,GI50,ACHN,> 100 µM (inactive)
same,GI50,CCRF-CEM,> 100 µM (inactive)
same,GI50,COLO 205,> 100 µM (inactive)
same,GI50,DMS-114,> 100 µM (inactive)
same,GI50,DMS-273,> 100 µM (inactive)
same,GI50,EKVX,> 100 µM (inactive)
same,GI50,HCC 2998,> 100 µM (inactive)
same,GI50,HCT-116,> 100 µM (inactive)
same,GI50,HCT-15,> 100 µM
same,GI50,HL-60,> 100 µM (inactive)
same,GI50,HOP-18,> 100 µM (inactive)
same,GI50,HOP-62,> 100 µM (inactive)
same,GI50,HOP-92,> 100 µM (inactive)
same,GI50,HT-29,> 100 µM (inactive)
same,GI50,IGROV-1,> 100 µM (inactive)
same,GI50,K562,> 100 µM (inactive)
same,GI50,KM-20L2,> 100 µM (inactive)
same,GI50,KM12,> 100 µM (inactive)
same,GI50,LOX IMVI,> 100 µM (inactive)
same,GI50,M14,> 100 µM (inactive)
same,GI50,M19-MEL,> 100 µM (inactive)
same,GI50,MOLT-4,> 100 µM (inactive)
same,GI50,NCI-H226,> 100 µM (inactive)
same,GI50,NCI-H23,> 100 µM (inactive)
same,GI50,NCI-H460,> 100 µM (inactive)
same,GI50,NCI-H522,> 100 µM (inactive)
same,GI50,OVCAR-3,> 100 µM (inactive)
same,GI50,OVCAR-4,> 100 µM (inactive)
same,GI50,OVCAR-8,> 100 µM (inactive)
same,GI50,RPMI-8226,> 100 µM (inactive)
same,GI50,RXF 393,> 100 µM (inactive)
same,GI50,RXF 631,> 100 µM (inactive)
same,GI50,SF-268,> 100 µM (inactive)
same,GI50,SF-295,> 100 µM (inactive)
same,GI50,SF-539,> 100 µM (inactive)
same,GI50,SK-MEL-28,> 100 µM (inactive)
same,GI50,SK-MEL-2,> 100 µM (inactive)
same,GI50,SK-MEL-5,> 100 µM (inactive)
same,GI50,SK-OV-3,> 100 µM (inactive)
same,GI50,SN12C,> 100 µM (inactive)
same,GI50,SNB-19,> 100 µM (inactive)
same,GI50,SNB-75,83.6 µM (inactive)
same,GI50,SNB-78,> 100 µM (inactive)
same,GI50,SW-620,> 100 µM (inactive)
same,GI50,TK-10,> 100 µM (inactive)
same,GI50,U-251,> 100 µM (inactive)
same,GI50,UACC-257,> 100 µM (inactive)
same,GI50,UACC-62,> 100 µM (inactive)
same,GI50,UO-31,> 100 µM (inactive)
same,GI50,XF498,25.8 µM (inactive)
Cc1c(C)c2ccc(OC(C)C(=O)O)cc2oc1=O (stereo not given),GI50,786-0,> 100 µM (inactive)
same,GI50,A498,> 100 µM (inactive)
same,GI50,A549,> 100 µM (inactive)
same,GI50,ACHN,> 100 µM (inactive)
same,GI50,CAKI-1,> 100 µM (inactive)
same,GI50,CCRF-CEM,> 100 µM (inactive)
same,GI50,COLO 205,> 100 µM (inactive)
same,GI50,DLD-1,> 100 µM (inactive)
same,GI50,DMS-114,> 100 µM (inactive)
same,GI50,EKVX,> 100 µM (inactive)
same,GI50,HCC 2998,> 100 µM (inactive)
same,GI50,HCT-116,> 100 µM (inactive)
same,GI50,HL-60,> 100 µM (inactive)
same,GI50,HOP-18,> 100 µM (inactive)
same,GI50,HOP-62,> 100 µM (inactive)
same,GI50,HOP-92,> 100 µM (inactive)
same,GI50,HT-29,> 100 µM (inactive)
same,GI50,IGROV-1,> 100 µM (inactive)
same,GI50,K562,> 100 µM (inactive)
same,GI50,KM-20L2,> 100 µM (inactive)
same,GI50,KM12,> 100 µM (inactive)
same,GI50,LOX IMVI,> 100 µM (inactive)
same,GI50,LXFL 529,> 100 µM (inactive)
same,GI50,M14,> 100 µM (inactive)
same,GI50,M19-MEL,> 100 µM (inactive)
same,GI50,MOLT-4,> 100 µM (inactive)
same,GI50,Malme-3M,> 100 µM (inactive)
same,GI50,NCI-H226,> 100 µM (inactive)
same,GI50,NCI-H23,> 100 µM (inactive)
same,GI50,NCI-H460,> 100 µM (inactive)
same,GI50,NCI-H522,> 100 µM (inactive)
same,GI50,OVCAR-3,> 100 µM (inactive)
same,GI50,OVCAR-4,> 100 µM (inactive)
same,GI50,OVCAR-8,> 100 µM (inactive)
same,GI50,RPMI-8226,> 100 µM (inactive)
same,GI50,RXF 393,> 100 µM (inactive)
same,GI50,RXF 631,> 100 µM (inactive)
same,GI50,SF-268,> 100 µM (inactive)
same,GI50,SF-295,> 100 µM (inactive)
same,GI50,SF-539,> 100 µM (inactive)
same,GI50,SK-MEL-28,> 100 µM (inactive)
same,GI50,SK-MEL-5,> 100 µM (inactive)
same,GI50,SK-OV-3,> 100 µM (inactive)
same,GI50,SN12C,> 100 µM (inactive)
same,GI50,SNB-19,> 100 µM (inactive)
same,GI50,SNB-75,> 100 µM (inactive)
same,GI50,SNB-78,> 100 µM (inactive)
same,GI50,SR,> 100 µM (inactive)
same,GI50,SW-620,> 100 µM (inactive)
same,GI50,TK-10,> 100 µM (inactive)
same,GI50,U-251,> 100 µM (inactive)
same,GI50,UACC-257,> 100 µM (inactive)
same,GI50,UACC-62,> 100 µM (inactive)
same,GI50,UO-31,> 100 µM (inactive)
same,GI50,XF498,35 µM (inactive)
